≈ marks a conversion by molar mass, not a printed value. Blank lines part the entries; values can stand above or below the molecule they belong to.
How the values were obtained:
Ketohexokinase [1] = target: T1, Ketohexokinase (Homo sapiens, UniProt P50053); experiment: Inhibition of human ketohexokinase isoform C expressed in Escherichia coli BL21 (DE3) cells using D-fructose as substrate after 12 to 15 mins by fluorescence polarization assay
T1 sequence (P50053 whole entry): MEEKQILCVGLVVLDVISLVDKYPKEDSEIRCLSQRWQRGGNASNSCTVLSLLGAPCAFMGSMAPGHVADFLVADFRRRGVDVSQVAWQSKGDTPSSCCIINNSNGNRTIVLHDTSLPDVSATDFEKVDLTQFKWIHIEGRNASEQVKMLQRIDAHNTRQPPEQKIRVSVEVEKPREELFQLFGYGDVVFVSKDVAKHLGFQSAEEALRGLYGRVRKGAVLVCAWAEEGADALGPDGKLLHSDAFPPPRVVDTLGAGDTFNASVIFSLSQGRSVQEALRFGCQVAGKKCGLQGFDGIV

Ketohexokinase [2] = target: T1, Ketohexokinase; experiment: Inhibition of ketokinase isoform C in human HepG2 cells assessed as levels of fructose-1-phosphate preincubated for 30 mins followed by substrate addition measured after 3 hrs by LC-MS analysis; type: cell-based
Ephrin type-B receptor 1 = Ephrin type-B receptor 1 (Homo sapiens, UniProt P54762); experiment: Inhibition of EPHB1
Cytochrome P450 2C9 = Cytochrome P450 2C9 (Homo sapiens, UniProt P11712); experiment: Inhibition of CYP2C9 in human liver microsomes; type: ADME, Microsome
[3] = Half life in Sprague-Dawley rat at 2 mg/kg, iv; type: ADME, organism-based; set-up: dose 2 mg/kg, route intravenous; conditions: in vivo
[4] = Volume of distribution at steady state in Sprague-Dawley rat at 2 mg/kg, iv; type: ADME, organism-based; set-up: dose 2 mg/kg, route intravenous; conditions: in vivo, read-out: Vdss
[5] = target: Proto-oncogene tyrosine-protein kinase Src (Homo sapiens, UniProt P12931); experiment: Inhibition of SRC
[6] = Permeability from basolateral to apical side in human Caco2 cells; type: ADME, cell-based; conditions: Caco-2, read-out: permeability
[7] = target: Tyrosine-protein kinase ABL1 (Homo sapiens, UniProt P00519); experiment: Inhibition of ABL1
[8] = target: Cyclin-dependent kinase 1/cyclin B1 (Homo sapiens, UniProt P06493); experiment: Inhibition of CDK1/cyclin B; type: protein-complex assay
[9] = target: Serine/threonine-protein kinase PAK 3 (Homo sapiens, UniProt O75914); experiment: Inhibition of PAK3
[10] = target: Protein kinase C theta type (Homo sapiens, UniProt Q04759); experiment: Inhibition of PKCtheta
Protein kinase C theta type, sequence (Q04759 whole entry): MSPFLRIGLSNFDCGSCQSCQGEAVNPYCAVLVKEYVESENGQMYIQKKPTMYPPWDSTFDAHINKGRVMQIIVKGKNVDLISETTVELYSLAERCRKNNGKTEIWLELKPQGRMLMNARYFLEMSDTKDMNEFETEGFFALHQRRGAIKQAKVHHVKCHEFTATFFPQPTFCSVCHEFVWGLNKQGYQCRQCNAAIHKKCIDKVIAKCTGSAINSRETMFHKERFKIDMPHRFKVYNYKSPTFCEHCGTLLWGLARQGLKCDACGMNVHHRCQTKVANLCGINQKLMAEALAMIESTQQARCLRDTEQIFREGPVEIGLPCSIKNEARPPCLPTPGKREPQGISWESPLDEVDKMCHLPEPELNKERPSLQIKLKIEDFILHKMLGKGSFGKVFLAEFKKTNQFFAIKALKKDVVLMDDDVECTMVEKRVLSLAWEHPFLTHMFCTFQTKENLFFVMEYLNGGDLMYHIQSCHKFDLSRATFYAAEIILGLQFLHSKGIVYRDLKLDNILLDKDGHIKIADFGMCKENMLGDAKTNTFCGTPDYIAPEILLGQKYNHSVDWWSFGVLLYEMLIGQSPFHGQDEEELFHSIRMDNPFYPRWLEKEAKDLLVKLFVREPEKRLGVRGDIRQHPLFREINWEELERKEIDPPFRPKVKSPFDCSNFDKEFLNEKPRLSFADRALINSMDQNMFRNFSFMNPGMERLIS

[11] = target: Serine/threonine-protein kinase pim-2 (Homo sapiens, UniProt Q9P1W9); experiment: Inhibition of PIM2
Serine/threonine-protein kinase pim-2, sequence (Q9P1W9 whole entry): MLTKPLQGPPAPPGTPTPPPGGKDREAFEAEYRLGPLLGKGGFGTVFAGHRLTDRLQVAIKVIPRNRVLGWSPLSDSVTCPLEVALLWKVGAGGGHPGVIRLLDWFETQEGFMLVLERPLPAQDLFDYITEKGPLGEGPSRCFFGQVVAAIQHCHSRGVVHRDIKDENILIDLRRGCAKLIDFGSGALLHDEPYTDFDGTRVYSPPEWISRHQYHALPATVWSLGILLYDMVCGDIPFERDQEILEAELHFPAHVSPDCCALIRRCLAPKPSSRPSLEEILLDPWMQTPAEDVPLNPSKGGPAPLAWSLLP

[12] = target: Rho-associated protein kinase 1 (Homo sapiens, UniProt Q13464); experiment: Inhibition of ROCK1
[13] = Half life in Sprague-Dawley rat at 10 mg/kg, po; type: ADME, organism-based; set-up: dose 10 mg/kg, route oral; conditions: in vivo
[14] = target: High affinity nerve growth factor receptor (Homo sapiens, UniProt P04629); experiment: Inhibition of NTRK1
Cytochrome P450 2C19 = Cytochrome P450 2C19 (Homo sapiens, UniProt P33261); experiment: Inhibition of CYP2C19 in human liver microsomes; type: ADME, Microsome
[15] = Metabolic stability of the compound in rat liver microsomes assessed as compound remaining after 10 mins; type: ADME, Microsome; conditions: read-out: Stability
[16] = Clearance in Sprague-Dawley rat at 2 mg/kg, iv; type: ADME, organism-based; set-up: dose 2 mg/kg, route intravenous; conditions: in vivo
[17] = target: 5'-AMP-activated protein kinase catalytic subunit alpha-1 (Homo sapiens, UniProt Q13131); experiment: Inhibition of AMPKA1
[18] = target: RAC-alpha serine/threonine-protein kinase (Homo sapiens, UniProt P31749); experiment: Inhibition of AKT1
RAC-alpha serine/threonine-protein kinase, sequence (P31749 whole entry): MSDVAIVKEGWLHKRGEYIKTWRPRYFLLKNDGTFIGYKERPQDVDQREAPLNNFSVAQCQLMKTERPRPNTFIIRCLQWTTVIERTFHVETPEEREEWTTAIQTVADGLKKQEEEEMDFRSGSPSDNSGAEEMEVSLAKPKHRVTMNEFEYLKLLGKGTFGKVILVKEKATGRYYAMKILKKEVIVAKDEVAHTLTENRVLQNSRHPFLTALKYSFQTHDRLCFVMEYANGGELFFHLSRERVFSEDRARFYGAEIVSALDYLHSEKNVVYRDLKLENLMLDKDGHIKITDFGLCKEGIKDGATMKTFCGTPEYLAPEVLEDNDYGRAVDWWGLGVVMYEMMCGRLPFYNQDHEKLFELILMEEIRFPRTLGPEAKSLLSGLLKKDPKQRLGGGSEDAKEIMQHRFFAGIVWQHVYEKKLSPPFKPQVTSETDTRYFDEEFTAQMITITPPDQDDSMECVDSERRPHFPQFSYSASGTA

Aurora kinase A = Aurora kinase A (Homo sapiens, UniProt O14965); experiment: Inhibition of Aurora A
[19] = Metabolic stability of the compound in human liver microsomes assessed as compound remaining after 10 mins; type: ADME, Microsome; conditions: read-out: Stability
[20] = target: Interleukin-1 receptor-associated kinase 4 (Homo sapiens, UniProt Q9NWZ3); experiment: Inhibition of IRAK4
[21] = target: Glycogen synthase kinase-3 beta (Homo sapiens, UniProt P49841); experiment: Inhibition of GSK3beta
[22] = Permeability from apical to basolateral side in human Caco2 cells; type: ADME, cell-based; conditions: Caco-2, read-out: permeability
[23] = target: Death-associated protein kinase 3 (Homo sapiens, UniProt O43293); experiment: Inhibition of DAPK3
[24] = target: Calcium/calmodulin-dependent protein kinase type 1D (Homo sapiens, UniProt Q8IU85); experiment: Inhibition of CAMK1D
Cytochrome P450 3A4 = Cytochrome P450 3A4 (Homo sapiens, UniProt P08684); experiment: Inhibition of CYP3A4 in human liver microsomes; type: ADME, Microsome
[25] = target: Mitogen-activated protein kinase 13 (Homo sapiens, UniProt O15264); experiment: Inhibition of p38delta
[26] = target: Tyrosine-protein kinase JAK2 (Homo sapiens, UniProt O60674); experiment: Inhibition of JAK2
[27] = target: Serine/threonine-protein kinase Chk2 (Homo sapiens, UniProt O96017); experiment: Inhibition of CHK2
[28] = target: Serine/threonine-protein kinase 26 (Homo sapiens, UniProt Q9P289); experiment: Inhibition of MST4
Cytochrome P450 2D6 = Cytochrome P450 2D6 (Homo sapiens, UniProt P10635); experiment: Inhibition of CYP2D6 in human liver microsomes; type: ADME, Microsome
[29] = target: cAMP-dependent protein kinase catalytic subunit alpha (Homo sapiens, UniProt P17612); experiment: Inhibition of PRKACA
[30] = Solubility of the compound in 10% aqueous Solutol; type: physicochemical
[31] = target: Serine/threonine-protein kinase Nek2 (Homo sapiens, UniProt P51955); experiment: Inhibition of NEK2
[32] = target: 5'-AMP-activated protein kinase subunit gamma-1 (Homo sapiens, UniProt P54619); experiment: Inhibition of AMPKG1
5'-AMP-activated protein kinase subunit gamma-1, sequence (P54619 whole entry): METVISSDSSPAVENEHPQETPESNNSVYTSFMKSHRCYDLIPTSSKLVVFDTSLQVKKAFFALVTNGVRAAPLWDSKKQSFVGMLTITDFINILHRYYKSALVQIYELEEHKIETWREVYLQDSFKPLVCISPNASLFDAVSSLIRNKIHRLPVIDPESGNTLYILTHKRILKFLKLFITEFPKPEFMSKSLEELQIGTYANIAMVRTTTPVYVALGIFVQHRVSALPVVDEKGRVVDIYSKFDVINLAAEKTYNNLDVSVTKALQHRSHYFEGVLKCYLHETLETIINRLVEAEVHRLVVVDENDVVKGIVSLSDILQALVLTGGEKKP

[33] = target: Ribosomal protein S6 kinase alpha-3 (Homo sapiens, UniProt P51812); experiment: Inhibition of RPS6KA3
Ribosomal protein S6 kinase alpha-3, sequence (P51812 whole entry): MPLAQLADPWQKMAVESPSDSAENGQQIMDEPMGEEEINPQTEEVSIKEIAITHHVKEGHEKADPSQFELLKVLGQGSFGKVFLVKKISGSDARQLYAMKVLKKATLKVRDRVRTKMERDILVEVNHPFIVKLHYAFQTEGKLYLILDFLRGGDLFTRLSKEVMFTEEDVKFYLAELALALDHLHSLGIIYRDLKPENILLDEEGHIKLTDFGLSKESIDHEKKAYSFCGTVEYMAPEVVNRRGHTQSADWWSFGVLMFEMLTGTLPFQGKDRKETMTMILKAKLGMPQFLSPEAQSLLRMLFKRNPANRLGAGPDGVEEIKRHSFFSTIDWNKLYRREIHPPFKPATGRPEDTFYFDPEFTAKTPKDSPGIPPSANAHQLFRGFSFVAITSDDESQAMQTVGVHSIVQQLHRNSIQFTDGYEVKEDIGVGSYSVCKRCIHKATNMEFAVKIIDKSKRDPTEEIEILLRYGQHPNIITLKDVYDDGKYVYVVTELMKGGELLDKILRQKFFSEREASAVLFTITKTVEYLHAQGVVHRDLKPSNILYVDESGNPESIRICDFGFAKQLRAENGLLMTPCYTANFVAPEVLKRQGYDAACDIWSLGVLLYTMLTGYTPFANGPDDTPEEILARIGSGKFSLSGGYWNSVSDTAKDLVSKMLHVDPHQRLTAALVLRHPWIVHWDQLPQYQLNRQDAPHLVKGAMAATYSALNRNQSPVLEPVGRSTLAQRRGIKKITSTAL

[34] = Oral bioavailability in Sprague-Dawley rat at 10 mg/kg; type: ADME, organism-based; conditions: in vivo
Activin receptor type-1B = Activin receptor type-1B (Homo sapiens, UniProt P36896); experiment: Inhibition of ALK4
Activin receptor type-1B, sequence (P36896 whole entry): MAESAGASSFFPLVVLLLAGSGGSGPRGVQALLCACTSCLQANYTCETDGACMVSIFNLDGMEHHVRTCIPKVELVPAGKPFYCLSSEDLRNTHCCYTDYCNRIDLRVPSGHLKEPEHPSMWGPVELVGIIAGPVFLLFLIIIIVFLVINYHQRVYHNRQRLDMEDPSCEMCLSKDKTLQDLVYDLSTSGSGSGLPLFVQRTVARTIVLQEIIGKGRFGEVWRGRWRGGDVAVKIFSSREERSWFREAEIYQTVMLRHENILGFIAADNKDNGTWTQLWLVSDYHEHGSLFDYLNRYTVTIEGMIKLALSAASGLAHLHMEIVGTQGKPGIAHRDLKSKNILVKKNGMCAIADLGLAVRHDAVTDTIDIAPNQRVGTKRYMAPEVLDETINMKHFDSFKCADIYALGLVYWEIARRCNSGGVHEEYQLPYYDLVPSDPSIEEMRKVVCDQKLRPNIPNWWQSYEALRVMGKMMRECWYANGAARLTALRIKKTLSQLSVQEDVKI

[35] = target: Serine/threonine-protein kinase Chk1 (Homo sapiens, UniProt O14757); experiment: Inhibition of CHK1
Serine/threonine-protein kinase Chk1, sequence (O14757 whole entry): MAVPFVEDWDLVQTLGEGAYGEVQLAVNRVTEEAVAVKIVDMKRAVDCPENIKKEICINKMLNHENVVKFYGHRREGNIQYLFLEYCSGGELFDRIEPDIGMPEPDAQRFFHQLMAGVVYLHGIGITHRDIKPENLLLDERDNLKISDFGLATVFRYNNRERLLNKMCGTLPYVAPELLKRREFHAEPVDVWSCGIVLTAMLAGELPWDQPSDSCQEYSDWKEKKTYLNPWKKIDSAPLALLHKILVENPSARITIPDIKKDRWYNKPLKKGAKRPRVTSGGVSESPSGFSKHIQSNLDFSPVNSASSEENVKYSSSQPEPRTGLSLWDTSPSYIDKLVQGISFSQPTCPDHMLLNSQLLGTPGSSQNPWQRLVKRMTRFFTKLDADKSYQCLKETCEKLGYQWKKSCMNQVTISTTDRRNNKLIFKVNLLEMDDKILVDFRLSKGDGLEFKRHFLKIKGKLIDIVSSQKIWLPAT

[36] = target: Calcium/calmodulin-dependent protein kinase type II subunit alpha (Homo sapiens, UniProt Q9UQM7); experiment: Inhibition of CAMK2A
[37] = Cmax in Sprague-Dawley rat at 10 mg/kg, po; type: ADME, organism-based; set-up: dose 10 mg/kg, route oral; conditions: in vivo
[38] = target: Serine/threonine-protein kinase PLK3 (Homo sapiens, UniProt Q9H4B4); experiment: Inhibition of PLK3
Serine/threonine-protein kinase PLK3, sequence (Q9H4B4 whole entry): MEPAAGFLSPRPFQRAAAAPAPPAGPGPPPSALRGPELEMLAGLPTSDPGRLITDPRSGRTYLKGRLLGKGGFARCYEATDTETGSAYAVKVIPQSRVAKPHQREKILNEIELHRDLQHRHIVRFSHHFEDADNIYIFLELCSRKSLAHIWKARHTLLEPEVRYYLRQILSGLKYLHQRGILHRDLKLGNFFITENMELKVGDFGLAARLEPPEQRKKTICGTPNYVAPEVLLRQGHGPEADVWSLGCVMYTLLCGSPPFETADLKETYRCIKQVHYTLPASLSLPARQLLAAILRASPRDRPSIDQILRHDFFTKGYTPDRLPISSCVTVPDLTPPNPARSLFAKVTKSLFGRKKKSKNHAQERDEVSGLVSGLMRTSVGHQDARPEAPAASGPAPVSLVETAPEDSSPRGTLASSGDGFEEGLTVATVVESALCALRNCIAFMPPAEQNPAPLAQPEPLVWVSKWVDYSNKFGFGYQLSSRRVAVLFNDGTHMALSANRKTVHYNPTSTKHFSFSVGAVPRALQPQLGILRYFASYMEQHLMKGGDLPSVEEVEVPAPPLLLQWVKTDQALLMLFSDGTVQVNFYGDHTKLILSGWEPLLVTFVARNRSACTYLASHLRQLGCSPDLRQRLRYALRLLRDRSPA

[39] = Initial plasma concentration in Sprague-Dawley rat at 2 mg/kg, iv; type: ADME, organism-based; set-up: dose 2 mg/kg, route intravenous
[40] = target: 5'-AMP-activated protein kinase subunit beta-1 (Homo sapiens, UniProt Q9Y478); experiment: Inhibition of AMPKB1
5'-AMP-activated protein kinase subunit beta-1, sequence (Q9Y478 whole entry): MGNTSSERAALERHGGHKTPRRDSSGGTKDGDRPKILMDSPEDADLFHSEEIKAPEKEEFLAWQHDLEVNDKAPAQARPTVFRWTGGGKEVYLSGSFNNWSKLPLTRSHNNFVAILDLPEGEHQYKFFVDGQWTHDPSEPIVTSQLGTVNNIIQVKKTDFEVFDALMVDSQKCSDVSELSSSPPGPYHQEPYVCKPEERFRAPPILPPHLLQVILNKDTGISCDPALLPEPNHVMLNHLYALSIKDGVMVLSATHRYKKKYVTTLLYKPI

Cytochrome P450 1A2 = Cytochrome P450 1A2 (Homo sapiens, UniProt P05177); experiment: Inhibition of CYP1A2 in human liver microsomes; type: ADME, Microsome
Cytochrome P450 1A2, sequence (P05177 whole entry): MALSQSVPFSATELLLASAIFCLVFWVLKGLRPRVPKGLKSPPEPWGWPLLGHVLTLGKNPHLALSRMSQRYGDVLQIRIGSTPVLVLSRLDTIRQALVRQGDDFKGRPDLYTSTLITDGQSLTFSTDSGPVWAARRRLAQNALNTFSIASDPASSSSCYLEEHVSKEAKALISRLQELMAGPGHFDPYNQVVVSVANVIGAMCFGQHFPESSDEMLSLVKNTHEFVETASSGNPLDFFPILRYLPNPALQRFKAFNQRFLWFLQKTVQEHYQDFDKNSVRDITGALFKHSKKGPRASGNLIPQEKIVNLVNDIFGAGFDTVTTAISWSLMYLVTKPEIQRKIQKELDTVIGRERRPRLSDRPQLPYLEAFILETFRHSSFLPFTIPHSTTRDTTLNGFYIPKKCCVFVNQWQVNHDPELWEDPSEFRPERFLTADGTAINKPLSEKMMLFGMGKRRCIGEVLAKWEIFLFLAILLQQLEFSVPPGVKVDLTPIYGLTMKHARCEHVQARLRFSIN

SMILES: CNc1ncnc2c(Nc3ccccc3C)nc(N3CCNCC3)nc12
IC50 (Ketohexokinase [1]): 0.4 µM

SMILES: Cc1ccccc1Nc1nc(N2CCNCC2)nc2c(NCC3CC3)ncnc12
IC50 (Ketohexokinase [2]): 2.4 µM

SMILES: c1ccc(Nc2nc(N3CCNCC3)nc3c(NCC4CC4)ncnc23)cc1
IC50 (Ketohexokinase [1]): 3.2 µM

SMILES: Cc1cccc(Nc2nc(N3CCNCC3)nc3c(NCC4CC4)ncnc23)c1
IC50 (Ketohexokinase [1]): 2.8 µM

SMILES: COc1ccccc1Nc1nc(N2CCNCC2)nc2c(NCC3CC3)ncnc12
IC50 (Ketohexokinase [1]): 0.1 µM

SMILES: CSc1cccc(Nc2nc(N3CCNCC3)nc3c(NCC4CC4)ncnc23)c1
IC50 (Ketohexokinase [1]): 2 µM

SMILES: CSc1ccc(Nc2nc(N3CCNCC3)nc3c(NCC4CC4)ncnc23)cc1
IC50 (Ketohexokinase [1]): > 9 µM

SMILES: CS(=O)(=O)c1ccccc1Nc1nc(N2CCNCC2)nc2c(NCC3CC3)ncnc12
IC50 (Ketohexokinase [1]): > 9 µM

SMILES: FC(F)(F)Sc1ccccc1Nc1nc(N2CCNCC2)nc2c(NCC3CC3)ncnc12
IC50 (Ketohexokinase [1]): 3 µM

SMILES: CCc1ccccc1Nc1nc(N2CCNCC2)nc2c(NCC3CC3)ncnc12
IC50 (Ketohexokinase [1]): 0.13 µM

SMILES: CC(C)c1ccccc1Nc1nc(N2CCNCC2)nc2c(NCC3CC3)ncnc12
IC50 (Ketohexokinase [1]): 5 µM

SMILES: Fc1ccccc1Nc1nc(N2CCNCC2)nc2c(NCC3CC3)ncnc12
IC50 (Ketohexokinase [1]): 1.5 µM

SMILES: c1nc(NCC2CC2)c2nc(N3CCNCC3)nc(NC3CC3)c2n1
IC50 (Ketohexokinase [1]): > 9 µM

SMILES: c1nc(NCC2CC2)c2nc(N3CCNCC3)nc(NC3CCCCC3)c2n1
IC50 (Ketohexokinase [1]): > 9 µM

SMILES: CCCCCCNc1ncnc2c(Nc3ccccc3C)nc(N3CCNCC3)nc12
IC50 (Ketohexokinase [1]): 1.6 µM

SMILES: CCN(CC)c1ncnc2c(Nc3ccccc3C)nc(N3CCNCC3)nc12
IC50 (Ketohexokinase [1]): 1.7 µM

The next lines start with results.

IC50 (Ketohexokinase [1]): 0.2 µM
SMILES: CCOc1ccccc1Nc1nc(N2CCNCC2)nc2c(NCC3CC3)ncnc12

IC50 (Ephrin type-B receptor 1): > 40 µM
inhibition (INH) (Cytochrome P450 2C9): Not Active
half-life [3]: 2 h
Vd [4]: 32 L/kg
IC50 [5]: > 40 µM
Papp B→A [6]: 1 ×10⁻⁶ cm/s
IC50 [7]: > 40 µM
IC50 [8]: > 40 µM
IC50 [9]: > 40 µM
IC50 [10]: > 40 µM
IC50 [11]: > 40 µM
IC50 [12]: > 40 µM
half-life [13]: 4 h
IC50 [14]: > 40 µM
inhibition (INH) (Cytochrome P450 2C19): Not Active
remaining at 10 min [15]: 72%
clearance [16]: 160 mL/min/kg
IC50 [17]: > 40 µM
IC50 [18]: > 40 µM
IC50 (Aurora kinase A): > 40 µM
remaining at 10 min [19]: 88%
IC50 [20]: > 40 µM
IC50 [21]: > 40 µM
Papp A→B [22]: 0.3 ×10⁻⁶ cm/s
IC50 [24]: > 40 µM
inhibition (INH) (Cytochrome P450 3A4): Not Active
IC50 [25]: > 40 µM
IC50 [26]: > 40 µM
IC50 [27]: > 40 µM
IC50 [28]: > 40 µM
inhibition (INH) (Cytochrome P450 2D6): Not Active
IC50 [29]: > 40 µM
solubility [30]: 1500 µg/mL (≈ 3.55 mM)
IC50 [31]: > 40 µM
IC50 [32]: > 40 µM
IC50 [33]: > 40 µM
bioavailability [34]: 34%
IC50 (Activin receptor type-1B): > 40 µM
IC50 [35]: > 40 µM
IC50 [36]: > 40 µM
Cmax [37]: 160 nM
IC50 [38]: > 40 µM
IC50 (Ketohexokinase [2]): 0.4 µM
C0 [39]: 600 nM
IC50 [40]: > 40 µM
inhibition (INH) (Cytochrome P450 1A2): Not Active
SMILES: CSc1ccccc1Nc1nc(N2CCNCC2)nc2c(NCC3CC3)ncnc12
IC50 [23]: > 40 µM

IC50 (Ketohexokinase [1]): > 9 µM
SMILES: CCSc1ccccc1Nc1nc(N2CCNCC2)nc2c(NCC3CC3)ncnc12

IC50 (Ketohexokinase [1]): 0.38 µM
SMILES: c1ccc(C2CC2)c(Nc2nc(N3CCNCC3)nc3c(NCC4CC4)ncnc23)c1

IC50 (Ketohexokinase [1]): 0.54 µM
SMILES: Clc1ccccc1Nc1nc(N2CCNCC2)nc2c(NCC3CC3)ncnc12

IC50 (Ketohexokinase [1]): 0.17 µM
SMILES: Brc1ccccc1Nc1nc(N2CCNCC2)nc2c(NCC3CC3)ncnc12

IC50 (Ketohexokinase [1]): 0.4 µM
SMILES: CCCNc1ncnc2c(Nc3ccccc3C)nc(N3CCNCC3)nc12

IC50 (Ketohexokinase [1]): 2.3 µM
SMILES: Cc1ccccc1Nc1nc(N2CCNCC2)nc2c(NC3CCCCC3)ncnc12

Reference: ChEMBL document CHEMBL2016462, “Inhibitors of Ketohexokinase: Discovery of Pyrimidinopyrimidines with Specific Substitution that Complements the ATP-Binding Site” (ACS Med Chem Lett, 2011)
